Results published in ChEMBL document CHEMBL1201862, “PubChem BioAssay data set” (2004).
Activity calls are given as the source filed them.

Tests used:
[1] = target: T1, High affinity choline transporter 1 (Homo sapiens, UniProt Q9GZV3); assay: CHT choline uptake inhibitors, dose response, cell-based, HEK-293 hCHT, [3H]-choline uptake (AID 652177); assay type: functional
T1 sequence (Q9GZV3 whole entry): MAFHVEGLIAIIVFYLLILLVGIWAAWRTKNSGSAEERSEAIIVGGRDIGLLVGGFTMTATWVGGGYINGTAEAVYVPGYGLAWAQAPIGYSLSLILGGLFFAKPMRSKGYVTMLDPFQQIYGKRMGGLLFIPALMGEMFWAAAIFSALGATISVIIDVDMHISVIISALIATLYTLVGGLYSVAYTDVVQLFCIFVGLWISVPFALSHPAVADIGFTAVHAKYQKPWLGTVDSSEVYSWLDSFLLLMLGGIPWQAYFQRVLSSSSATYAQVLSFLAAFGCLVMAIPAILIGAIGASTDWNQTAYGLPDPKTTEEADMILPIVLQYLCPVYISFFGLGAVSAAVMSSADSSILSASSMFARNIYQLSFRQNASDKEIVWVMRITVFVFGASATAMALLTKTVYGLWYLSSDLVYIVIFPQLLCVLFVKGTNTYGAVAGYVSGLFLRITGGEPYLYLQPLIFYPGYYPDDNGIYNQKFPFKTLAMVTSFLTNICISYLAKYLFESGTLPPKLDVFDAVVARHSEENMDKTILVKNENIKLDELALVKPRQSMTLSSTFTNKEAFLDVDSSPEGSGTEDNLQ

[2] = target: T2, Zinc finger protein mex-5 (Caenorhabditis elegans, UniProt Q9XUB2); assay: MEX-5/TCR-2 RNA interaction inhibitors, dose response, biochemical, C. elegans, fluorescence polarization (AID 1960)
T2 sequence (Q9XUB2 whole entry): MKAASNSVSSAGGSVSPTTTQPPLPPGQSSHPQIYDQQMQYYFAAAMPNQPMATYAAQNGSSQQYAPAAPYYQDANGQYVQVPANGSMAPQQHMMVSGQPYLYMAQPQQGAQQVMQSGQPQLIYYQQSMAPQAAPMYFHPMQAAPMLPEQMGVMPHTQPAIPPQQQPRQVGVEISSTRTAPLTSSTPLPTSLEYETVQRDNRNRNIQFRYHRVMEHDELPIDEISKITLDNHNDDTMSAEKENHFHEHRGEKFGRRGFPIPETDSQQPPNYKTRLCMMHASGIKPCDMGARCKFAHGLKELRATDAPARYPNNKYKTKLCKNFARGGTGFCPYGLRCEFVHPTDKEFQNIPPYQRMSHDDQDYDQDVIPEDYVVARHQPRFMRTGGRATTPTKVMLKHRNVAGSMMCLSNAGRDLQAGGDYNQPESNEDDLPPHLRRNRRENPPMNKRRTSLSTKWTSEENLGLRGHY

[3] = target: Kallikrein-7 (Homo sapiens, UniProt P49862); assay: Fluorescence Intensity-based biochemical primary high throughput dose response assay to identify activators of kallikrein-7 (K7) zymogen.
[4] = EDANS-DABCYL fluorescence interference, concentration series, dose response, artefact control for kallikrein-7 zymogen activator project, biochemical, fluorescence intensity, triplicate (AID 720493)
[5] = target: T3, RNA-binding protein pos-1 (Caenorhabditis elegans, UniProt G5EF15); assay: inhibitors of POS-1/mex-3 RNA binding, dose response, biochemical, fluorescence polarization (AID 1964);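 further: purified POS-1 fused to maltose binding protein made in E. coli; potency of compounds blocking POS-1 binding to fluorescent RNA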
T3 sequence (G5EF15 whole entry): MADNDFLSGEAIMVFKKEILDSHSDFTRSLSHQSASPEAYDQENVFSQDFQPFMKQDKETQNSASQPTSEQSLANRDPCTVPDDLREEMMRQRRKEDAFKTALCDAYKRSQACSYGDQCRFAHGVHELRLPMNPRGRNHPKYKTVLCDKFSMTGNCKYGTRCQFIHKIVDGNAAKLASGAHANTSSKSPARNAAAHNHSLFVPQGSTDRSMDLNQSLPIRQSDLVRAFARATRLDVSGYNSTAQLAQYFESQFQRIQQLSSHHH

[6] = target: Botulinum neurotoxin type F (Clostridium botulinum, UniProt P30996); assay: High-throughput multiplex microsphere dose response for inhibitors of toxin protease, specifically Botulinum neurotoxin light chain F protease, compounds from Cherry Pick 02.; assay type: functional; conditions: read-out: EC50_MICROM
[7] = tested on: H9c2; assay: cells; assay type: functional, cell-based; conditions: Rattus norvegicus, H9c2, Myocardium;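 further: confirmatory concentration-response retest of ultra-high-throughput screening hits for modulation of myocardial damage; cell death induced by hydrogen peroxide oxidative stress; compound pretreatment for 60 min then peroxide exposure for 2 h; potency is for protecting the cells against peroxide damage rather than for killing them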
[8] = CFTR ΔF508 corrector activity in bronchial cells, dose response, human bronchial epithelial cells, plate reader, cherry-pick, two tests (AID 743267); assay type: functional, cell-based
[9] = target: Protein Wnt-3a (Mus musculus, UniProt P27467); assay: SAR analysis of small molecule antagonists of Gli-SUFU in a Wnt3a luminescent reporter assay.; assay type: functional
[10] = A549 cell cytotoxicity, dose response, cytotoxicity control, plate reader, cherry-pick, antagonist series (AID 743412); assay type: functional, cell-based
[11] = LGR2 antagonists, dose response, cell-based, HEK293, CRE-luciferase reporter, cherry pick (AID 743342); assay type: functional
[12] = cytotoxicity toward HT-29 cells – cell-based, CellTiter-Glo luminescence, IC50, dose response (AID 1117330); assay type: functional
[13] = cells; assay type: functional, cell-based; conditions: HEK-CNG
[14] = target: COUP transcription factor 2 (Homo sapiens, UniProt P24468); assay: Luminescence-based cell-based high throughput dose response assay to identify inhibitors of COUP-TFII (NR2F2).; assay type: functional;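 further: HEK293 cells transiently cotransfected with COUP-TFII expression vector and reporter; luciferase reporter luminescence driven by COUP-TFII from the pX2-168 reporter plasmid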
[15] = cytotoxicity toward HCT116 cells – cell-based, CellTiter-Glo luminescence, IC50, dose response (AID 1117332); assay type: functional; conditions: HCT-116
[16] = target: Galanin receptor type 3 (Homo sapiens, UniProt O60755); assay: Fluorescence-based cell-based primary high throughput dose response assay to identify antagonists of the Galanin Receptor 3 (GalR3).; assay type: functional
[17] = HeLa 2N DNA content increase, dose response, cell-based, IC50 (AID 1117349); assay type: functional
[18] = cytotoxicity toward Colo320 cells – cell-based, CellTiter-Glo luminescence, IC50, dose response (AID 1117334); assay type: functional; conditions: COLO 320
[19] = Shn3 3'UTR reporter inhibitors, dose response, cell-based, Clone20 osteoblasts, firefly luciferase, cherry-picked (AID 624132); assay type: functional;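 further: firefly luciferase luminescence from reporter carrying the Shn3 3'UTR in osteoblasts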
[20] = control 3'UTR Renilla luciferase suppression, dose response, counter-screen for Shn3 inhibitor project, cell-based, Clone20-Shn3RL, cherry-picked (AID 624133); assay type: functional
[21] = SNU-C1 cell viability reduction, dose response, CellTiter-Glo luminescence (AID 1117323); assay type: functional, cell-based
[22] = CellTiter-Glo luminescent dose response of DLD-1 viability loss (AID 1117352); assay type: functional
[23] = HeLa 4N DNA content increase, dose response, cell-based, IC50 (AID 1117351); assay type: functional
[24] = Concentration-dependent survival of SW480 colon cancer line, luminescence detection with CellTiter-Glo, half-maximal inhibitory concentration (AID 1117338); assay type: functional
[25] = HepG2 cell cytotoxicity, dose response, cytotoxicity control for Shn3 inhibitor project, CellTiter-Glo, cherry-picked (AID 624134); assay type: functional, cell-based
[26] = miR-122 activators in hepatoma reporter cells, dose response, cell-based, Huh7 psiCHECK-miR122, Renilla luciferase, cherry-picked (AID 651956); assay type: functional;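 further: huh7 hepatoma cells stably carrying a psiCHECK-2 miR-122 sensor plasmid; renilla luciferase signal reporting endogenous miR-122 activity after 48 h compound exposure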
[27] = HepG2 cell cytotoxicity, dose response, cytotoxicity control, cherry-picked samples (AID 1159577); assay type: functional, cell-based
[28] = HepG2 cell cytotoxicity, dose response, cytotoxicity control, cherry-picks, set 5 (AID 1053118); assay type: functional, cell-based
[29] = HEK293 cell cytotoxicity, dose response, cytotoxicity control, cherry-picks, set 5 (AID 1053117); assay type: functional, cell-based
[30] = HEK293T cytotoxicity, dose response, cytotoxicity control for miR-122 modulator project, cell-based, inhibitor set, cherry-pick, set 2 (AID 720697); assay type: functional
[31] = P. falciparum Dd2 growth inhibitors, dose response, SYBR Green, cherry-picked samples (AID 1159567); assay type: functional, cell-based
[32] = inhibitors of fibronectin matrix deposition, dose response, AH1F cells, Alexa488-FN fluorescence, cherry-picks (AID 1035475); assay type: functional, cell-based

Chain of Protein Wnt-3a (P27467 whole entry): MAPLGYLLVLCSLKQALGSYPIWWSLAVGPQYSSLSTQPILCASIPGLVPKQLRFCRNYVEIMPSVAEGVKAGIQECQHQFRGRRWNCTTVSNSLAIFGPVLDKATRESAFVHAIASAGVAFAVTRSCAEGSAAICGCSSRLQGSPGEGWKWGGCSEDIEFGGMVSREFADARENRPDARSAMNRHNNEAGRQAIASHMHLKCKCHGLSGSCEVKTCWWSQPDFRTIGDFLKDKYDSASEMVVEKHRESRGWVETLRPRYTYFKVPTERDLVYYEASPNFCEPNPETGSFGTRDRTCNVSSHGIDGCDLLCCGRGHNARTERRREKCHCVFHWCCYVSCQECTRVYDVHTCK
Chain of COUP transcription factor 2 (P24468 whole entry): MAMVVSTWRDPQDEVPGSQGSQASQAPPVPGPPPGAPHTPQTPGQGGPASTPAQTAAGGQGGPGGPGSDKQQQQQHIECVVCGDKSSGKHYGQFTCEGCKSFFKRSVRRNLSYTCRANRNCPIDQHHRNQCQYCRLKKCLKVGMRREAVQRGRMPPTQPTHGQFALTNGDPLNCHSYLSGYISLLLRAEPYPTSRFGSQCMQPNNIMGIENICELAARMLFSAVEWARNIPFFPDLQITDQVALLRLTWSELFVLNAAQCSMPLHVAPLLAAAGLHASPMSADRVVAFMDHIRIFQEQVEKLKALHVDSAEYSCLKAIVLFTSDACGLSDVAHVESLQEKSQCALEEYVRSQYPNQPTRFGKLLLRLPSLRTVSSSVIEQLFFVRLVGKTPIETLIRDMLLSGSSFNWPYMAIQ
Chain of Galanin receptor type 3 (O60755 whole entry): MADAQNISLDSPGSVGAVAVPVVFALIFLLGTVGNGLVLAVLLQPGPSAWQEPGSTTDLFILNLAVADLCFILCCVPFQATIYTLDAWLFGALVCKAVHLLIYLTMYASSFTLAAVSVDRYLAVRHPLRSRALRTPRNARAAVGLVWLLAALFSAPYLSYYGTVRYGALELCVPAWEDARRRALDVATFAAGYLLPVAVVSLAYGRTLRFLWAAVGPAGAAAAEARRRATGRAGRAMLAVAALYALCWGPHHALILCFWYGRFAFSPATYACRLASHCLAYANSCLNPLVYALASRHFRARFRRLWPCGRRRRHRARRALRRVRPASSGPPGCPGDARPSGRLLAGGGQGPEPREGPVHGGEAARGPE
Chain of Botulinum neurotoxin type F (P30996 1-436 limits assumed): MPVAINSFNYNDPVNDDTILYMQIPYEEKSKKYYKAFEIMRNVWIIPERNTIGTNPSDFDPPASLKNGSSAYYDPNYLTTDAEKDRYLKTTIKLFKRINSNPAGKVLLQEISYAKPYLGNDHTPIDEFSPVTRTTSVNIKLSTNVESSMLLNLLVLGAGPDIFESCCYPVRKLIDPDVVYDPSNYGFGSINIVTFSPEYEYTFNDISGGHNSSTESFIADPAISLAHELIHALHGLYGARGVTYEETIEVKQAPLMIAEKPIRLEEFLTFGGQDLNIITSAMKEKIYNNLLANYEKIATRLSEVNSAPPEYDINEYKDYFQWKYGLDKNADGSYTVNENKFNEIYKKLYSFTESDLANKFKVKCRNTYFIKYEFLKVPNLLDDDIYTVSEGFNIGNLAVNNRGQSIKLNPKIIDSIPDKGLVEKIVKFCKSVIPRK
Chain of Kallikrein-7 (P49862 whole entry): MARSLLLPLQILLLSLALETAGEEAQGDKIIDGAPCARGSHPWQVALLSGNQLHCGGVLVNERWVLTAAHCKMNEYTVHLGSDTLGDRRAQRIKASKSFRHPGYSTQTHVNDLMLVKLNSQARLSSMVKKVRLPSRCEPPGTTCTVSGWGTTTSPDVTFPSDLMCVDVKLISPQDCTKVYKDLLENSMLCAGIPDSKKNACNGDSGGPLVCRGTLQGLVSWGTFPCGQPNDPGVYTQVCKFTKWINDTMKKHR

For `COc1ccc(C(=O)NCCN2CCCC2)cc1OC1CCN(C(C)C)CC1`, the IC50 [1] was 1.84 µM (active).
With `Cc1ccc(/C=C2\Oc3c(ccc(O)c3CN3CCN(C)CC3)C2=O)cc1` the EC50 [2] was 153 µM (active), the EC50 [3] was 12.5 µM (inactive) and the EC50 [4] was > 7.73 µM (active). The EC50 [5] was 43.7 µM (active).
With `COc1ccc(-c2oc3c(OC)c(OC)c(OC)c(O)c3c(=O)c2OC)cc1OC` the EC50 [6] was > 20 µM (inactive) and the IC50 [7] was > 79 µM (inactive).
With `COc1ccccc1NS(=O)(=O)c1cc(NN=C(C(C)=O)C(=O)Nc2ccc(Cl)cc2)ccc1C` the AC50 [8] was 36.6 µM (active).
In the case of `CN(C)c1cc(NC(=O)c2cccc(C#N)c2)ncn1`, the IC50 [9] is reported as > 21.8 µM (inactive).
In the case of `C[C@H](CO)N1C[C@H](C)[C@H](CN(C)C(=O)Nc2cccc3ccccc23)OCCCC[C@H](C)Oc2ccc(NC(=O)C3CCCCC3)cc2C1=O`, the AC50 [10] is reported as 43.9 µM (active) and the AC50 [11] is reported as 0.747 µM (active).
For `Cc1nc2ccccc2n1Cc1ccc(Cl)cc1` [CHLORMIDAZOLE], the IC50 [12] was > 20 µM (inactive), the EC50 [13] was > 29.9 µM (inactive) and the IC50 [14] was 10.6 µM (inactive). The IC50 [15] was 1.22 µM (active), the IC50 [16] was 0.203 µM (active) and the IC50 [17] was > 10 µM (inactive). The IC50 [18] was 15.2 µM (inactive), the AC50 [19] was 1.46 µM (active) and the AC50 [20] was 28.2 µM (active). The IC50 [21] was > 20 µM (inactive), the IC50 [22] was > 20 µM (inactive) and the IC50 [23] was > 10 µM (inactive). The IC50 [24] was 5.33 µM (inactive) and the AC50 [25] was 2.79 µM (active).
With `CO[C@H]1CN(C)C(=O)c2cc(NC(=O)Nc3ccc(Cl)c(Cl)c3)ccc2OC[C@H](C)NC[C@H]1C` the AC50 [26] was 23.2 µM (active), the AC50 [27] was 12.1 µM (active) and the AC50 [28] was 18.5 µM (active). The AC50 [29] was 26.6 µM (active), the AC50 [30] was 18.1 µM (active) and the AC50 [31] was 10.4 µM (active). For the same compound, the AC50 [32] was > 70 µM (inactive).
